Data taken from patent publication US4350697A, “Antidepressant and neuroleptic benzothiopyrano [2,3-c]-pyridines” (Roussel Uclaf, priority 1980, dated 1982).
Structures can show the parent of a compound that is named as a salt.

Tests used:
[1] = biological target: neuroleptic receptors (frontal cortex membranes, major serotonergic component); experiment: [3H] spiroperidol receptor binding displacement on frontal cortex membranes (test A); conditions: [3H] spiroperidol 0.19 nM, rat frontal cortex membranes, 37° C., 10 minutes
Description: A. [^3 H] Spiroperidol binding to neuroleptic receptors in membranes prepared from the striatum and frontal cortex of rats
The binding of [^3 H] spiroperidol to frontal cortex membranes appears to entail a major serotonergic component, whereas in striatal membranes the binding is predominantly dopaminergic [Leysen et al, Nature Vol. 272 (1978) p. 168-171] The ability of drugs to displace this radioligand from the frontal cortical receptors matches their activity in other models of serotonergic function, both for agonists and antagonists. Likewise, in striatal membranes, such activities predict the antidopaminergic action of neuroleptic drugs.
[Phenyl-4(n)-^3 H] spiroperidol (Radiochemical Centre, TRK 570 21 Ci/mmol was used as the labelled ligand supplied as a 250 μCi/250 μl solution in ethanol and this solution was diluted 3.2/10,000 in assay buffer and 0.1 ml of this was added to 2 ml of binding assay.
=0.19 nM [^3 H] spiroperidol
The assay buffer was a modified 50 mM Tris HCl buffer with a pH of 7.6 and containing 120 mM of sodium chloride, 5 mM of potassium chloride, 1 mM of magnesium chloride, 2 mM of calcium chloride, 10 μM of pargyline and 0.1% of ascorbic acid.
The membrane preparation involved dissecting the frontal cortices or striata from 4 male CFHB rats according to J. Glowinski et al [Eur. J. Pharmacol., Vol. 49, (1978), P. 201-202]. The frontal cortex was taken as that cortical tissue in `C`, dorsal to a horizontal reference line passing through the point where the olfactory bulbs join the frontal cortex. The animals were killed by cervical dislocation and the dissected tissue was homogenized in 20 volumes of ice cold 0.32 M sucrose with a Teflon/glass homogeniser. The homogenate was centrifuged at 1000 g for 10 minutes and the resulting supernatant was recentrifuged at 30,000 g for 30 minutes. The supernatant was discarded and the pellet was resuspended by homogenization in 30 volumes of ice cold assay buffer.
Non-specific binding was accounted for by the inclusion of 1 μM (+) butaclamol in blank binding assays and this required a stock solution of 20 μM in distilled water. Solutions of displacing compounds were prepared at 20x final assay concentration in distilled water.
Binding assays of 1.3 ml assay buffer, 0.5 ml membrane suspension, 0.1 ml distilled H2 O or drug solutions and 0.1 ml [^3 H] spiroperidol dilution were made up in ice with the [^3 H] spiroperidol being added last and incubated at 37° C. for 10 minutes. The bound ligand was separated by filtration through Whatman GF/C filters under vacuum followed by 2×10 ml rinses of ice cold assay buffer. The filters were dried at 80° C. and counted in 5 ml volumes of ECONOFLUOR (NEN). All binding assays, controls, blanks and each displacer concentration were run in triplicate. The [^3 H] spiroperidol receptor binding displacement results on frontal cortex membranes (test A) and on striatal membranes (test B) are given in Table III below and the results are expressed as IC50 (nM).

[2] = biological target: α-noradrenergic receptor; experiment: [3H] WB-4101 receptor binding displacement, rat cortical membranes (test C); conditions: [3H] WB-4101 0.25 nM, 25° C., 15 minutes
[3] = biological target: Muscarinic chloinergic receptor; assay type: binding; conditions: [3H] QNB 0.3 nM, rat forebrain membranes, 25° C., 1 hour; read-out: IC50 test D
[4] = system: hypothermia induced by apomorphine; experiment: Reversal of apomorphine hypothermia in mice (test E); assay type: in vivo; conditions: Mus musculus, ip; male CD/l mice, test drug i.p. 30 minutes before apomorphine hydrochloride 16 mg/kg s.c.; rectal temperature 30 minutes later; read-out: ED50 for the reversal of the hypothermia induced by apomorphine HCl in mice (test E)
Description: D. Reversal of apomorphine hypothermia in mice
Whereas the reversal of the hypothermia induced in mice by low doses of apomorphine is a characteristic of classical neuroleptic agents, the hypothermia induced by high doses of this agent is specifically reversed by antidepressant drugs [Puech et al., In `Advances in Pharmacology and Therapeutics Vol., 5` ed. Dumont, c. Pergamon p. 171-176 (1979)]. Groups of 10 male CD/l mice (16-22 g) were dosed with vehicle or test drug intraperitoneally 30 minutes prior to the subcutaneously injection of apomorphine hydrochloride at 16 mg/kg. The rectal temperatures were recorded 30 minutes later using a rectal thermometer with digital readout.

| SMILES | IC50 [1] | IC50 [2] | IC50 [3] | ED50 [4] |
| --- | --- | --- | --- | --- |
| CN1CCC2=C(c3ccccc3)c3ccccc3SC2C1.Cl (stereo not drawn) [Example 1, 2-methyl-5-phenyl-1,3,4,10a-tetrahydro-2H-[1]-benzothiopyrano[2,3-c]pyridine hydrochloride] | 250 nM | 394 nM | 14000 nM | 30 mg/kg |
| CN1CCC2=C(c3ccc(Cl)cc3)c3ccccc3SC2C1 (stereo not drawn) [Example 2] | 602 nM | 692 nM | > 100000 nM | > 40 mg/kg |
| Cc1ccc(C2=C3CCN(C)CC3Sc3ccccc32)cc1 (stereo not drawn) [Example 3, 2-methyl-5-(4-tolyl)-1,3,4,10a-tetrahydro-2H[1]benzothiopyrano[2,3-c]pyridine] | 25 nM | 29 nM | 73600 nM | 20 mg/kg |
| COc1ccc(C2=C3CCN(C)CC3Sc3ccccc32)cc1 (stereo not drawn) [Example 4] | 131 nM | 120 nM | 62000 nM | 15 mg/kg |
| CN1CCC2=C(c3cccc(Cl)c3)c3ccccc3SC2C1 (stereo not drawn) [Example 5] | 427 nM | 1950 nM | 16200 nM | > 40 mg/kg |
| CN1CCC2=C(c3ccc(N(C)C)cc3)c3ccccc3SC2C1 (stereo not drawn) [Example 6, 2-methyl-5-(4-dimethylaminophenyl)-1,3,4,10a-tetrahydro-2H[1]benzothiopyrano[2,3-c]pyridine] | 112 nM | 100 nM | > 100000 nM | – |
| Cc1cccc(C2=C3CCN(C)CC3Sc3ccccc32)c1 (stereo not drawn) [Example 7] | 251 nM | 813 nM | 8710 nM | > 40 mg/kg |
| CN1CCC2=C(c3ccc(Cl)c(Cl)c3)c3ccccc3SC2C1 (stereo not drawn) [Example 8] | 537 nM | 631 nM | > 100000 nM | – |
| CCc1ccc(C2=C3CCN(C)CC3Sc3ccccc32)cc1 (stereo not drawn) [Example 9] | 50 nM | 59 nM | > 100000 nM | > 40 mg/kg |
| Cc1ccccc1C1=C2CCN(C)CC2Sc2ccccc21 (stereo not drawn) [Example 10] | 105 nM | 813 nM | 8130 nM | 80 mg/kg |
| CCCOc1ccc(C2=C3CCN(C)CC3Sc3ccccc32)cc1 (stereo not drawn) [Example 11] | 1250 nM | 6760 nM | > 100000 nM | 22 mg/kg |
| CCN1CCC2=C(c3ccccc3)c3ccccc3SC2C1 (stereo not drawn) [Example 12] | 398 nM | 502 nM | 19000 nM | – |
| CN1CCC2=C(c3ccccc3)c3cc(Cl)ccc3SC2C1 (stereo not drawn) [Example 13] | 1480 nM | 355 nM | 47900 nM | > 40 mg/kg |
| Cc1ccc(C2=C3CCN(C)CC3Sc3ccccc32)cc1C (stereo not drawn) [Example 14] | 155 nM | 502 nM | > 100000 nM | 30 mg/kg |
| CN1CCC2=C(c3ccc(N)cc3)c3ccccc3SC2C1.Cl (stereo not drawn) [Example 15, 5-(4-aminophenyl)-2-methyl-1,3,4,10a-tetrahydro-2H-[1]benzothiopyrano[2,3-c]pyridine hydrochloride] | 158 nM | 372 nM | 7940 nM | 5 mg/kg |
| Cc1ccc2c(c1)SC1CN(C)CCC1=C2c1ccccc1 (stereo not drawn) [Example 16] | 708 nM | 1450 nM | 29500 nM | – |
| c1ccc(C2=C3CCNCC3Sc3ccccc32)cc1 (stereo not drawn) [Example 17] | 624 nM | 676 nM | 19500 nM | 35 mg/kg |
| Cc1cccc2c1SC1CN(C)CCC1=C2c1ccccc1 (stereo not drawn) [Example 18] | 174 nM | 794 nM | 38900 nM | > 40 mg/kg |
| Cc1ccc(C2=C3CCN(C)CC3Sc3ccccc32)c(C)c1 (stereo not drawn) [Example 19, 2-methyl-5-(2,4-dimethylphenyl)-1,3,4,10a-tetrahydro-2H-[1]benzothiopyrano[2,3-c]pyridine hydrochloride] | 32 nM | 23 nM | 42700 nM | – |
| CN1CCC2=C(c3ccccc3)c3cccc(Cl)c3SC2C1 (stereo not drawn) [Example 20] | 304 nM | 1050 nM | 67800 nM | – |
| CN1CCC2=C(c3ccccc3)c3ccc(Cl)cc3SC2C1 (stereo not drawn) [Example 21] | 1140 nM | 3020 nM | 58900 nM | > 100 mg/kg |
| Cc1ccc2c(c1)C(c1ccccc1)=C1CCN(C)CC1S2 (stereo not drawn) [Example 22] | 2450 nM | 12500 nM | > 100000 nM | > 100 mg/kg |
| Cc1cccc(C)c1C1=C2CCN(C)CC2Sc2ccccc21 (stereo not drawn) [Example 23] | 331 nM | 617 nM | 4370 nM | > 40 mg/kg |
| Cc1cc(C)c(C2=C3CCN(C)CC3Sc3ccccc32)c(C)c1 (stereo not drawn) [Example 24] | 308 nM | 617 nM | 1180 nM | > 40 mg/kg |
